We go through 38 molecules from patent US9012651B2, “TRPV3 modulators” (AbbVie Inc., priority 2011, dated 2015).

human TRPV3 receptors, sequence (Q8NET8 whole entry): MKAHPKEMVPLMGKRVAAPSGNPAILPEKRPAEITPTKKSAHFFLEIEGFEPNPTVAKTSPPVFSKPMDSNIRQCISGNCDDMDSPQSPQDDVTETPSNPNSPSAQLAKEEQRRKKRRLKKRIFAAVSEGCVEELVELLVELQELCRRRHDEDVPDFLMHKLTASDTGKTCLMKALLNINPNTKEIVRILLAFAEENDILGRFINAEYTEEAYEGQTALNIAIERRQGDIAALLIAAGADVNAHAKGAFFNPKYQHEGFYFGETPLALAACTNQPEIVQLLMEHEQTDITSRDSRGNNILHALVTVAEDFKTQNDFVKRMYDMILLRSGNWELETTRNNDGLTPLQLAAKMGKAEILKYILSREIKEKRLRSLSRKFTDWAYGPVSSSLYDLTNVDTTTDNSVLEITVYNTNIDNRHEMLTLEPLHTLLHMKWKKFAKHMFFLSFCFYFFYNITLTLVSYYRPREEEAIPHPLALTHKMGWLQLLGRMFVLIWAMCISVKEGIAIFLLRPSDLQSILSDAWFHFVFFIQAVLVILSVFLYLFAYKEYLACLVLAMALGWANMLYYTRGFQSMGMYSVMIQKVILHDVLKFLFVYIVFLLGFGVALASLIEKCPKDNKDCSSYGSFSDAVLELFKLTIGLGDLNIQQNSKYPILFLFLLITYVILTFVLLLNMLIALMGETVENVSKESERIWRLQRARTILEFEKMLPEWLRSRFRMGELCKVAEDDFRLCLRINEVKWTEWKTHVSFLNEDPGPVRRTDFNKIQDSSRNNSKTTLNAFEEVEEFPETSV

This assay concerns the target human TRPV3 receptors (Homo sapiens (Human), UniProt Q8NET8). The assay can be described thus: Calcium flux assay (FLIPR TETRA), inhibition of the 2-APB response. The format is cell-based. To be noted: recombinant HEK293 cells stably expressing TRPV3, Calcium-4 dye, 2-APB at its EC80. Put shortly: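 HEK293 cells stably expressing human and mouse TRPV3, plated the day before and dye-loaded 90-120 min in the dark, read on FLIPR Tetra. Peak fluorescence increase over baseline was expressed as percent of the maximal 2-APB response without compound.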
Background: Calcium flux is commonly read through the fluorescence of an indicator in the cells.
As a reminder, the IC50 is the concentration at which inhibition is half-maximal. Regarding `CC[C@H](CO)NCc1ccnc(-c2ccc(C(F)(F)F)cc2)n1` [Example 138, (2R)-2-[({2-[4-(trifluoromethyl)phenyl]pyrimidin-4-yl}methyl)amino]butan-1-ol], the concentration for half-maximal inhibition (IC50) came to 3050 nM.
The same measure for `OCC[C@H](NCc1ccnc(-c2ccc(C(F)(F)F)cc2)n1)c1ccccc1` [Example 163, (3S)-3-phenyl-3-[({2-[4-(trifluoromethyl)phenyl]pyrimidin-4-yl}methyl)amino]propan-1-ol]: above 20000 nM; for `CC(C)[C@@H](NCc1nc(-c2ccc(C(F)(F)F)nc2)ccc1F)C(N)=O` [Example 117, (R)-2-((5-fluoro-6′-(trifluoromethyl)-2,3′-bipyridin-6-yl)methylamino)-3-methylbutanamide]: above 20000 nM.
The same measure for `CC(C)(O)CNCc1ccnc(-c2ccc(C(F)(F)F)cc2)n1` [Example 175, 2-methyl-1-[({2-[4-(trifluoromethyl)phenyl]pyrimidin-4-yl}methyl)amino]propan-2-ol]: above 20000 nM; for `CC(C)[C@H](CO)NCc1nc([C@H]2CC[C@H](C(F)(F)F)CC2)ccc1F` [Example 258, (2R)-2-[({3-fluoro-6-[trans-4-(trifluoromethyl)cyclohexyl]pyridin-2-yl}methyl)amino]-3-methylbutan-1-ol]: 290 nM.
Turning to `CC(C)[C@H](CO)NCc1nc(C2CCCCCC2)ccc1F` [Example 206], the IC50 was 1230 nM.
The same measure for `CC(C)[C@H](CO)NCc1nc(-c2cc(C(F)(F)F)ccc2F)ccc1F` [Example 282, (2R)-2-[({3-fluoro-6-[2-fluoro-5-(trifluoromethyl)phenyl]pyridin-2-yl}methyl)amino]-3-methylbutan-1-ol]: 370 nM; for `CC1CCN(C(=O)c2cccc(-c3ccc(F)c(CN[C@@H](CO)C(C)C)n3)c2)CC1` [Example 46, {3-[5-fluoro-6-({[(2R)-1-hydroxy-3-methylbutan-2-yl]amino}methyl)pyridin-2-yl]phenyl}(4-methylpiperidin-1-yl)methanone]: 2020 nM; for `CC(C)[C@H](CO)NCc1nc(-c2ccc(C(F)(F)F)cc2C(F)(F)F)ccc1F` [Example 293, (2R)-2-[({6-[2,4-bis(trifluoromethyl)phenyl]-3-fluoropyridin-2-yl}methyl)amino]-3-methylbutan-1-ol]: 550 nM.
Consider `CC(C)[C@H](CO)NCc1ccnc(-c2ccc(Cl)cc2)n1` [Example 34, (2R)-2-({[2-(4-chlorophenyl)pyrimidin-4-yl]methyl}amino)-3-methylbutan-1-ol], for which the 50% inhibitory concentration (IC50) amounted to 1390 nM.
Turning to `CC(C)[C@H](CO)NCc1nc(-c2cnn(CC3OCCO3)c2)ccc1F` [Example 250, (2R)-2-[({6-[1-(1,3-dioxolan-2-ylmethyl)-1H-pyrazol-4-yl]-3-fluoropyridin-2-yl}methyl)amino]-3-methylbutan-1-ol], the 50% inhibitory concentration (IC50) is above 20000 nM.
The figure for `CC(C)(CO)CNCc1cccc(-c2ccc(C(F)(F)F)cc2)n1` [Example 8, 2,2-dimethyl-3-[({6-[4-(trifluoromethyl)phenyl]pyridin-2-yl}methyl)amino]propan-1-ol] is 2600 nM; for `CC(C)[C@H](CO)NCc1cccc(-c2ccc(F)c(C#N)c2)n1` [Example 269, 2-fluoro-5-[6-({[(2R)-1-hydroxy-3-methylbutan-2-yl]amino}methyl)pyridin-2-yl]benzonitrile] it is 440 nM.
`CC(C)[C@H](CO)NCc1nc(-c2cccc(N(C)C)c2)ccc1F` [Example 43, (2R)-2-[({6-[3-(dimethylamino)phenyl]-3-fluoropyridin-2-yl}methyl)amino]-3-methylbutan-1-ol]: the half-inhibitory concentration (IC50) was 460 nM.
Take `CC(C)[C@H](CO)NCc1nc(C2CCC(C(C)(C)C)CC2)ccc1F` (stereo partly drawn) [Example 213, (2R)-2-({[6-(4-tert-butylcyclohexyl)-3-fluoropyridin-2-yl]methyl}amino)-3-methylbutan-1-ol]: the IC50 came out at 790 nM.
For `CC(C)[C@H](CO)NCc1nc(-c2cc(F)cc(F)c2)ccc1F` [Example 247, (2R)-2-({[6-(3,5-difluorophenyl)-3-fluoropyridin-2-yl]methyl}amino)-3-methylbutan-1-ol], the IC50 was 80 nM.
The figure for `C[C@@H](O)[C@@H](CO)NCc1ccnc(-c2ccc(C(F)(F)F)nc2)n1` [Example 191, (2R,3R)-2-[({2-[6-(trifluoromethyl)pyridin-3-yl]pyrimidin-4-yl}methyl)amino]butane-1,3-diol] is above 20000 nM; for `CC(C)[C@H](CO)NCc1cccc(N2CCCC2)n1` [Example 10, (2R)-3-methyl-2-({[6-(pyrrolidin-1-yl)pyridin-2-yl]methyl}amino)butan-1-ol] it is 3790 nM; for “{1-[({2-[5-(trifluoromethyl)pyridin-2-yl]pyrimidin-4-yl}methyl)amino]cyclohexyl}methanol [Example 193]” it is above 20000 nM.
The figure for `CC(C)[C@H](CO)NCc1nc(-c2ccc(OCC(F)(F)F)cc2)ccc1F` [Example 53, (2R)-2-[({3-fluoro-6-[4-(2,2,2-trifluoroethoxy)phenyl]pyridin-2-yl}methyl)amino]-3-methylbutan-1-ol] is 460 nM; for `CC(C)Oc1ccc(-c2ccc(F)c(CN[C@@H](CO)C(C)C)n2)cc1F` [Example 25, (2R)-2-[({3-fluoro-6-[3-fluoro-4-(propan-2-yloxy)phenyl]pyridin-2-yl}methyl)amino]-3-methylbutan-1-ol] it is 650 nM; for `C[C@@H](O)[C@@H](CO)NCc1nc(-c2ccc(C(F)(F)F)nc2)ccc1F` [Example 121, (2R,3R)-2-({[5-fluoro-6′-(trifluoromethyl)-2,3′-bipyridin-6-yl]methyl}amino)butane-1,3-diol] it is 6180 nM.
The same measure for `CC(C)[C@H](CO)NCc1nc(-c2ccc(C(F)(F)F)c(Cl)c2)ccc1F` [Example 47, (2R)-2-[({6-[3-chloro-4-(trifluoromethyl)phenyl]-3-fluoropyridin-2-yl}methyl)amino]-3-methylbutan-1-ol]: 290 nM; for `OCC1(NCc2ccnc(-c3ccc(C(F)(F)F)cc3)n2)CC1` [Example 135, {1-[({2-[4-(trifluoromethyl)phenyl]pyrimidin-4-yl}methyl)amino]cyclopropyl}methanol]: above 20000 nM; for `CC(C)[C@@H](NCc1nc(-c2ccc(C(F)(F)F)cc2)ccc1F)C(C)O` (stereo partly drawn) [Example 107, (3R)-3-[({3-fluoro-6-[4-(trifluoromethyl)phenyl]pyridin-2-yl}methyl)amino]-4-methylpentan-2-ol]: 700 nM.
As to `O[C@@H]1CCCC[C@@H]1NCc1ccnc(-c2ccc(C(F)(F)F)cc2)n1` [Example 172, (1R,2S)-2-[({2-[4-(trifluoromethyl)phenyl]pyrimidin-4-yl}methyl)amino]cyclohexanol], the IC50 is 4930 nM.
Take `CC(C)[C@H](CO)NCc1nc(C2CCCC2)ccc1F` [Example 220, (2R)-2-{[(6-cyclopentyl-3-fluoropyridin-2-yl)methyl]amino}-3-methylbutan-1-ol]: the half-inhibitory concentration (IC50) was determined as 480 nM.
As to `CC(C)[C@H](CO)NCc1nc(-c2ccc(C(F)(F)F)nc2)ccc1Cl` [Example 110, (2R)-2-({[5-chloro-6′-(trifluoromethyl)-2,3′-bipyridin-6-yl]methyl}amino)-3-methylbutan-1-ol], the IC50 worked out at 630 nM.
As to `CC(C)[C@H](CO)NCc1nc(C2CCC(C(F)(F)F)CC2)ccc1F` (stereo partly drawn) [Example 216, (2R)-2-[({3-fluoro-6-[4-(trifluoromethyl)cyclohexyl]pyridin-2-yl}methyl)amino]-3-methylbutan-1-ol], the half-inhibitory concentration (IC50) is 310 nM.
For the molecule `CC[C@H](CO)NCc1ccnc(-c2ccc(C(F)(F)F)cn2)n1` [Example 194, (2R)-2-[({2-[5-(trifluoromethyl)pyridin-2-yl]pyrimidin-4-yl}methyl)amino]butan-1-ol], the 50% inhibitory concentration (IC50) is above 20000 nM.
The figure for `CC1CCN(C(=O)c2ccc(-c3ccc(F)c(CN[C@@H](CO)C(C)C)n3)cc2)CC1` [Example 275, {4-[5-fluoro-6-({[(2R)-1-hydroxy-3-methylbutan-2-yl]amino}methyl)pyridin-2-yl]phenyl}(4-methylpiperidin-1-yl)methanone] is 1330 nM; for `OC[C@@H]1CCCC[C@@H]1NCc1ccnc(-c2ccc(C(F)(F)F)cc2)n1` [Example 168, {(1R,2S)-2-[({2-[4-(trifluoromethyl)phenyl]pyrimidin-4-yl}methyl)amino]cyclohexyl}methanol] it is above 20000 nM.
The figure for `CC(C)[C@H](CO)NCc1nc(-c2cc3ccccc3[nH]2)ccc1F` [Example 274, (2R)-2-({[3-fluoro-6-(1H-indol-2-yl)pyridin-2-yl]methyl}amino)-3-methylbutan-1-ol] is 260 nM; for `OC[C@@H](Cc1ccccc1)NCc1ccnc(-c2ccc(C(F)(F)F)cc2)n1` [Example 140, (2R)-3-phenyl-2-[({2-[4-(trifluoromethyl)phenyl]pyrimidin-4-yl}methyl)amino]propan-1-ol] it is above 20000 nM; for `OC[C@@H]1[C@H]2CC[C@H](C2)[C@@H]1NCc1ccnc(-c2ccc(C(F)(F)F)cc2)n1` [Example 169, {(1S,2R,3S,4R)-3-[({2-[4-(trifluoromethyl)phenyl]pyrimidin-4-yl}methyl)amino]bicyclo[2.2.1]hept-2-yl]methanol] it is above 20000 nM.
Take `CC(C)[C@H](CO)NCc1nc(-c2cccc(OC(F)(F)F)c2)ccc1F` [Example 18, (2R)-2-[({3-fluoro-6-[3-(trifluoromethoxy)phenyl]pyridin-2-yl}methyl)amino]-3-methylbutan-1-ol]: the half-maximal inhibitory concentration (IC50) came to 1120 nM.
As to `O[C@@H]1CCCC[C@@H]1NCc1nc(-c2ccc(C(F)(F)F)nc2)ccc1F` [Example 123, (1R,2S)-2-({[5-fluoro-6′-(trifluoromethyl)-2,3′-bipyridin-6-yl]methyl}amino)cyclohexanol], the half-inhibitory concentration (IC50) was found to be 8550 nM.
Take `CC(C)[C@H](CO)NCc1cccc(-c2ccc(F)c(C(F)(F)F)c2)n1` [Example 267, (2R)-2-[({6-[4-fluoro-3-(trifluoromethyl)phenyl]pyridin-2-yl}methyl)amino]-3-methylbutan-1-ol]: the half-maximal inhibitory concentration (IC50) was found to be 180 nM.
